Laboratory results as given in paper PMC6408276 (ACS infectious diseases, 2019).
“And” between values parts separate entries of the source, which are not always exact repeats. Equal values may be shown once.

Legend:
[1] = system: Colombiana strain of Trypanosoma cruzi; assay: Mouse model of T. cruzi infection: parasitemia, survival and natural relapse; format: in vivo
[2] = system: Colombiana strain of Trypanosoma cruzi; assay: Assessment of therapeutic failure after cyclophosphamide immunosuppression; format: in vivo; settings: for Blood parasite load determined by qPCR: n=5, after cyclophosphamide; for Blood parasite load determined by qPCR / % Negative blood qPCR: VFV in 10 % DMSO plus 5 % Gum Arabic; for % Blood parasite clearence (negative qPCR): n=10, after cyclophosphamide immunosuppression, VFV in DGAT; for % Negative blood qPCR: surviving mice n=5, after cyclophosphamide
[3] = PK studies in mice after single oral administration; format: in vivo; settings: for Life time (time until compound becomes undetectable, below 0.1 μM): mice plasma; for Life time (time until compound becomes undetectable, below 0.1 μM) / Bioavailability when Tween 80 was added to the vehicle (DGAT vs HPCD): single oral 25 mg/kg; for Bioavailability when Tween 80 was added to the vehicle (DGAT vs HPCD): mice; for Tmax: mouse, po, 25 mg/kg
NIH/3T3 = settings: cited from earlier work
[4] = cited from earlier work
[5] = cited from earlier work; remark: listed apart in the source
CYP3A4 = settings: read-out: CYP3A4 IC50; cited from earlier work
[6] = cited from earlier work; remark: listed apart in the source
[7] = Swiss male mice n=5, 60 days po, VNI and VFV in 10 % DMSO plus 5 % Gum Arabic
[8] = Swiss male mice n=10, 60 days po, VFV in DGAT

Q: For O=C(Cn1ccnc1[N+](=O)[O-])NCc1ccccc1 [Bz, benznidazole, reference compound], which “% Animal survival” value [1, 7] is on record?
A: Its value is 100%.

Q: And the “Natural relapse after the therapy” value [1, 7]?
A: Its value is “all animals and 5 out of 5 mice”.

Q: What about the “% Animal survival” value [1, 8] of the same molecule?
A: The value was 100%.

Q: And the “Natural relapse after the therapy” value [1, 8]?
A: Its value is 6 mice and 6 out of 10 mice.

Q: What about the “Blood parasite load determined by qPCR” value [2] of the same molecule?
A: Its value is 13038 ± 13612.

Q: What about the “% Blood parasite clearence (negative qPCR)” value [2] of the same molecule?
A: Its value is 30%.

Q: And the “% Negative blood qPCR” value [2]?
A: Its value is 0%.

Q: Which “% Animal survival” value [1, 7] does the source give for O=C(N[C@@H](Cn1ccnc1)c1ccc(-c2ccc(F)cc2)cc1F)c1ccc(-c2nnc(-c3ccccc3)o2)cc1 [VFV, (R)-N-(1-(3,4′-difluorobiphenyl-4-yl)-2-(1H-imidazol-1-yl)ethyl)-4-(5-phenyl-1,3,4oxadiazol-2-yl)benzamide] here?
A: The value was 100%.

Q: What about the “Natural relapse after the therapy” value [1, 7] of the same molecule?
A: The value was “all animals and 5 out of 5 mice”.

Q: And the “% Animal survival” value [1, 8]?
A: Its value is 100%.

Q: What about the “% Parasitemia suppression” value [1, 8] of the same molecule?
A: The value was 99.8%.

Q: And the “Natural relapse after the therapy” value [1, 8]?
A: Its value is 5 mice and 5 out of 10 mice.

Q: What about the “Blood parasite load determined by qPCR” value [2] of the same molecule?
A: The value was 905 ± 854.

Q: And the “% Blood parasite clearence (negative qPCR)” value [2]?
A: The value was 0%.

Q: And the “% Negative blood qPCR” value [2]?
A: Its value is 0%.

Q: And the “Life time (time until compound becomes undetectable, below 0.1 μM)” value ([3]; HPCD formulation)?
A: The value was under 24 h.

Q: And the “Bioavailability when Tween 80 was added to the vehicle (DGAT vs HPCD)” value [3]?
A: Its value is “three-fold higher bioavailability”.

Q: What about the Tmax ([3]; in vivo) of the same molecule?
A: The Tmax was 4 h.

Q: And the “EC25 (cellular toxicity)” value (NIH/3T3)?
A: Its value is over 50 µM.

Q: And the Hepatic clearance [4]?
A: The Hepatic clearance was “moderate hepatic clearance”.

Q: And the “NOAEL (in vivo toxicity)” value [5]?
A: The value was over 200 mg/kg.

Q: And the IC50 (CYP3A4)?
A: Its IC50 is 3.6 µM.

Q: Which results are given for O=C(N[C@@H](Cn1ccnc1)c1ccc(Cl)cc1Cl)c1ccc(-c2nnc(-c3ccccc3)o2)cc1 [VNI, (R)-N-(1-(2,4-dichlorophenyl)-2-(1H-imidazol-1-yl)ethyl)-4-(5-phenyl-1,3,4-oxadi-azol-2 yl)benzamide]?
A: % Animal survival [1, 7]: 100%; % Parasitemia suppression [1, 7]: 99.9%; Natural relapse after the therapy [1, 7]: 3 out of five and 3 out of 5 mice; Blood parasite load determined by qPCR [2]: 372 ± 528; Sustained negative parasitemia after cyclophosphamide (light microscopy) ([2]; n=5, 10 % DMSO plus 5 % Gum Arabic vehicle): 20%; % Negative blood qPCR [2]: 20%; Life time (time until compound becomes undetectable, below 0.1 μM) ([3]; DGAT formulation): 16 h; Life time (time until compound becomes undetectable, below 0.1 μM) ([3]; HPCD formulation): 10 h; Bioavailability when Tween 80 was added to the vehicle (DGAT vs HPCD) [3]: three-fold higher bioavailability; Tmax ([3]; plasma): 2 h

Q: For CC[C@@H]([C@H](C)O)n1ncn(-c2ccc(N3CCN(c4ccc(OC[C@@H]5CO[C@@](Cn6cncn6)(c6ccc(F)cc6F)C5)cc4)CC3)cc2)c1=O [posaconazole, reference compound], which “Maximal concentration in mice plasma” value [6] is on record?
A: The value was […].

Q: What about the IC50 (CYP3A4) of the same molecule?
A: The IC50 was […].
